{"source": "patent US9340590B2", "about": "(priority 2011, dated 2016)", "test_system": "locomotor activity in male CD-1 mice", "conditions": "5 mg/kg s.c.; for total basic movement / total fine movement / total rearing / total time rearing: later studies (FIGS. 99-110), 1-hour pre-treatment", "note": "Positions of bridges follow the written chain, without caps; N, C: chain ends. Residues, ends and D or L forms follow the SMILES beside them."}
{"smiles": "CC[C@H](C)[C@@H]1NC(=O)[C@@H]2CSSC[C@@H]3NC(=O)[C@H](C(C)C)NC(=O)[C@H](CC(C)C)NC(=O)[C@H](CC(N)=O)NC(=O)[C@@H]4CCCN4C(=O)[C@H](CCCNC(=N)N)NC(=O)[C@H](CSSC[C@H](NC(=O)[C@@H](N)CC(=O)O)C(=O)N[C@@H](CC(C)C)C(=O)NCC(=O)N[C@@H](Cc4ccccc4)C(=O)N[C@@H](CCSC)C(=O)N[C@@H](CCCNC(=N)N)C(=O)N[C@@H](CCCCN)C(=O)N2)NC(=O)[C@H](CSSC[C@@H](C(=O)N[C@@H](CCCCN)C(=O)N[C@@H](Cc2ccc(O)cc2)C(=O)N[C@H](C(=O)N[C@@H](Cc2ccccc2)C(N)=O)C(C)C)NC(=O)[C@H](CCC(=O)O)NC(=O)[C@H](CCCCN)NC(=O)[C@H](Cc2cnc[nH]2)NC(=O)[C@H]([C@@H](C)O)NC(=O)[C@H](CCCNC(=N)N)NC(=O)[C@H](CO)NC3=O)NC(=O)[C@H](CCCCN)NC(=O)[C@H](CC(=O)O)NC(=O)[C@H](CC(N)=O)NC(=O)[C@H](CC(=O)O)NC(=O)[C@@H]2CCCN2C1=O", "note": "[[Glu29]GpTx-1(1-34)] (H-DCLGFMRKCIPDNDKCCRPNLVCSRTHKECKYVF-NH2; disulfide 2-17, 9-23, 16-30)", "values": [{"measurement": "total basic movement", "result": "did not significantly decrease"}, {"measurement": "total fine movement", "result": "not significantly affected"}, {"measurement": "total rearing", "result": "did not significantly decrease"}, {"measurement": "total time rearing", "result": "not significantly affected"}]}
{"smiles": "CC[C@H](C)[C@@H]1NC(=O)[C@@H]2CSSC[C@@H]3NC(=O)[C@H](C(C)C)NC(=O)[C@H](CC(C)C)NC(=O)[C@H](CC(N)=O)NC(=O)[C@@H]4CCCN4C(=O)[C@H](CCCNC(=N)N)NC(=O)[C@H](CSSC[C@H](NC(=O)[C@@H](N)CC(=O)O)C(=O)N[C@@H](CC(C)C)C(=O)NCC(=O)N[C@@H](Cc4ccccc4)C(=O)N[C@@H](CCSC)C(=O)N[C@@H](CCCNC(=N)N)C(=O)N[C@@H](CCCCN)C(=O)N2)NC(=O)[C@H](CSSC[C@@H](C(=O)N[C@@H](CCCCN)C(=O)N[C@@H](Cc2ccc(O)cc2)C(=O)N[C@H](C(=O)N[C@@H](Cc2ccccc2)C(N)=O)C(C)C)NC(=O)[C@H](Cc2c[nH]c4ccccc24)NC(=O)[C@H](CCC(=O)O)NC(=O)[C@H](Cc2cnc[nH]2)NC(=O)[C@H]([C@@H](C)O)NC(=O)[C@H](CCCNC(=N)N)NC(=O)[C@H](CO)NC3=O)NC(=O)[C@H](CCCCN)NC(=O)[C@H](CC(=O)O)NC(=O)[C@H](CC(N)=O)NC(=O)[C@H](CC(=O)O)NC(=O)[C@@H]2CCCN2C1=O", "note": "[[Glu28]GpTx-1(1-34)] (H-DCLGFMRKCIPDNDKCCRPNLVCSRTHEWCKYVF-NH2; disulfide 2-17, 9-23, 16-30)", "values": [{"measurement": "locomotor activity in the open field analysis", "result": "significantly reduced locomotor activity"}, {"measurement": "total basic movement", "result": "significantly reduced"}, {"measurement": "total fine movement", "result": "significantly reduced"}, {"measurement": "total rearing", "result": "significantly reduced"}, {"measurement": "total time rearing", "result": "significantly reduced"}]}
